Results reported in patent publication US8802054B2, “Method for characterizing the oxidative stress protective capacity of an antioxidative substance” (PCR Technology Holdings, LC, priority 2005, dated 2014).

What was measured:
[1] = tested on: human skin; assay: UVB irradiation of human skin measuring damage by formation of sunburn cells (sunburn cell assay); assay type: in vivo; details: for reduction in SBCs: 0.5% w/w in ethanol/water, topical once a day for two weeks, 1.5 MED UVB; for Sun Burn Cell Assay score: normalized to best performer = 20 points
From the text: Test 1: UVB Irradiation of Human Skin Measuring Damage by Formation of Sunburn Cells (SBC)
Exposure to UV radiation can cause damage of epidermal cells, resulting in the formation of sunburn cells. Since sunburn cells can be counted, their formation provides a relatively sensitive and quantitative measure of the extent of UV radiation damage to the epidermis.
All applications were made to a 5×10 cm area site over the mid-back region once a day for two weeks. Each putative antioxidant was applied to five (n=5) different healthy adult volunteers between the ages of 18 and 60. All Antioxidants were dissolved in ethanol/water at 0.5% w/w concentrations. Additionally, one test site was left untreated and served as a control. Approximately ten minutes after the last application, test sites were irradiated to 1.5 MED (Minimal Erythema Dose) of UVB light, a shave biopsy taken and prepared histologically, and the number of sun burn cells (SBC) evaluated microscopically per High Power Field.
The light source used was a 150 watt xenon arc solar simulator equipped with a UV reflecting dichromic mirror and a 1 mm thick Schott WG-320 (BES Optics Inc., W. Warwick, R.I.) filter to produce simulation of the solar spectrum. A 1 mm thick UG5 filter was added to remove reflected heat and remaining visible radiation.
The MED for each subject was determined by exposing a 1 cm diameter circle to untreated areas to a series of exposures in 25% dose increments from the solar simulator. The MED was defined as the time of exposure required to produce a minimally perceptible erythema 20±4 hours after exposure. Biopsies: Approximately ten minutes after the last topical application of the putative antioxidant, a circular area measuring 1 cm in diameter was exposed to a single dose of 1.5 MED using the solar simulator. Approximately 20 hours later, a shave biopsy (˜4×4 mm) was obtained from each irradiated and untreated control sites. Following injections of a local anesthetic (lidocaine). The skin specimens were immediately fixed in 10% buffered formalin.
The fixed specimens were processed routinely, embedded in paraffin and then sectioned and stained with hematoxylin-eosin. The numbers of sun burn cells (SBC) were determined in at least 12 sections at 50 u intervals. A minimum of 70 high power fields (HPF) was counted from each biopsy and the average number of SBCs per HPF determined. All specimens were counted in a blinded manner.
FIG. 3 expresses the photoprotective benefits of the antioxidants tested based on the percent change over baseline (delta percent) for the number of SBC per HPF.

[2] = Radical scavenging capacity measured by photochemilluminescence (Photochem system); assay type: biochemical; details: for Photochemilluminescence score: 10 nmol/L=20, 100 nmol/L=15, 1000 nmol/L=10, >1000 nmol/L=5; for Effective Concentration (to eliminate radical formation): lowest effective concentration, base 10 serial dilution
From the text: Test 2: Radical Scavenging Capacity Measured by Photochemilluminescence
This test assessed the general antioxidative capacity of substances in their ability to scavenge free radicals via the measurement of radicals generated (or lack thereof) through their reaction with luminol and subsequent light emission.
The individual antioxidant capacity of the putative antioxidant substances was estimated by the Photochem® system (Analytik Jena AG, Jena, Germany, and Analytik Jena USA, Inc., Texas). The system combines the generation of radicals through photochemical excitation with highly sensitive luminometric detection via the radical reaction with luminol to produce measurable light emission. Samples are diluted with pre-made buffers (standardized kits) and applied to the device. The relative antioxidative capacity is determined by comparison to a standardized blank (without antioxidants) and a standard provided with the kit. The ACL-kit (Integral Antioxidative Capacity of lipid-soluble substances) and the ACW-kit ((Integral Antioxidative Capacity of water-soluble substances) were used.
Antioxidant concentrations effective to eliminate radical formulation were established for each antioxidant.

[3] = LDL pro-oxidative system (CuSO4) measuring primary oxidation by-products (lipid hydroperoxides); assay type: biochemical; details: 100 μmol antioxidant; normalized to best performer = 20 points
From the text: Test 3: LDL Pro-Oxidative Systems Measuring Primary & By-Products
This test assessed the ability of the antioxidant to protect LDL stressed with Copper Sulfate (Cu—SO4) oxidative system. The CuSO4-LDL system was used to evaluate the protection of lipid bulks over time measuring the primary by-products of lipid peroxidation—the highly reactive and cytotoxic lipid hydroperoxides.
After isolation, LDLs were extensively dialyzed against a degassed and nitrogen-saturated Tris-Hydrochloric (HCl) buffer (5 mmol/L, pH7.4) containing 1 mmol/L EDTA. Before oxidation by CuSO4, EDTA was removed from LDL by dialysis against a Tris-HCl buffer (5 mmol/L, pH7.4) without added EDTA.
Lipid hydroperoxides were determined with the Cayman Lipid Peroxidation (LPO) Assay Kit (Cayman Chemical, Ann Arbor, Mich.) which measures the hydroperoxides directly utilizing the redox reactions with ferrous ions to produce ferric ions which can be detected using thiocyanate ion as the chromogen.

[4] = Microsome pro-oxidative system (NADPH/ADP/Fe3+) measuring secondary oxidation by-products (MDA equivalents, TBARS); assay type: biochemical, male Wistar rats; details: 100 μmol antioxidant; normalized to best performer = 20 points
Protocol: Test 4: Microsome Pro-Oxidative System measuring Secondary Oxidation By-Products
In this test, an assessment of antioxidative ability to protect microsomal membrane stressed with NADPH/ADP/Fe^3+-oxidative system measuring secondary oxidative by-products (Malondialdehyde-MDA equivalents) was performed utilizing the Thiobarbituric Acid Reactive Substances (TBARS) method. […] Therefore the pro-oxidative NADPH/ADP/Fe^3+-microsome system was used as an in vitro model system more closely resembling natural cellular biological systems.
Livers were obtained from male Wistar rats weighing between 250 and 400 g. Tissue was homogenized in 50 mmol/L N-2-Hydroxyethylpiperazine-N-2-Ethanesulfonic Acid (HEPES), 250 mmol/L sucrose buffer, pH 7.4, containing 150 mmol/L Potassium Chloride (KCl) and 500 μmol/L EDTA using a kinematica polytron PT3000 (Brinkmann Instruments, Westbury, N.Y.) homogenizer. Microsomal vesicles were isolated by removal of the nuclear fraction at 8,000×g for 10 min at 4° C. and removal of the mitochondrial fraction at 18,000×g for 10 min at 4° C. using a Beckman L8-55 ultracentrifuge and a 50Ti-13 rotor. The microsomal fraction was sedimented at 105,000×g for 60 min at 4° C. The pellet was washed once in 50 mmol/L HEPES and 150 mmol/L KCl, pH7.4, and collected again at 105,000×g for 30 min. The resulting microsomal pellet was resuspended in HEPES/KCl, pH7.4, by careful sonication in ice and stored in portions (10 mg protein/ml) at −80° C. until use.
The microsomal preparations were incubated in the presence of the pro-oxidant system NADPH/ADP/Fe^3+, consisting of 0.20 mmol/L NADPH, 50 mmol/L ADP, and 0.25 mmol/L FeCl3 in HEPES/KCl buffer (150 mmol/L KCl, 50 mmol/L HEPES) with and without the putative antioxidant substances. Oxidation of 1-ml aliquots containing 1 mg of protein was started at 37° C. by the addition of NADPH and was stopped with EDTA (10 mmol/L) after the times indicated in the figure legends. Control incubations without the pro-oxidant system were performed at 37° C. in the presence of EDTA. All Antioxidants were dissolved in water or ethanol and added to the incubations at equivalent 100 μmol concentrations.
Microsomal preparations (500 μl) were mixed with 1 ml of thiobarbituric acid (0.67 g/100 ml, 0.05 mol/L Sodium Hydroxide-NaOH). After the addition of trichloroacetic acid (50% w/v), the samples were heated to 90° C. for 30 min. After cooling and extraction of the samples with 1 ml of butanol, the absorbance of the butanol phase was determined spectrophotometrically at 532 nm. For quantification, an external standard curve was prepared using 1,1,3,3-tetraethoxypropane, which yields MDA.

[5] = tested on: Human primary foreskin keratinocytes; assay: UVB irradiation of keratinocytes measuring DNA damage (nuclear thymine dimer staining); assay type: cell-based; set-up: Inhibition of photoproduct generation (protective effect): concentration or dose not given beside the values; details: for Positive cells after UVB radiation (anti-thymine dimer antibody positive cells) / Inhibition of photoproduct generation (protective effect): 200 mJ/cm2 UVB; for Positive cells after UVB radiation (anti-thymine dimer antibody positive cells): positive cells above threshold in three fields, irradiated control 53%; for Inhibition of photoproduct generation (protective effect): relative to irradiated control; for UVB Irradiated Keratinocytes score: normalized to best performer = 20 points
From the text: Test 5: UVB Irradiation of Keratinocytes Measuring DNA Damage
This test assessed DNA damage in cell culture experiments under pro-oxidative conditions (UVB irradiation of human keratinocytes) by measuring the positive cells for anti-thymine dimer antibodies. This experiment is thought to reflect a direct correlation to the in vivo occurring DNA cross linking damage following UVB exposure and the protection of such nuclear damage by antioxidants.
Human primary foreskin keratinocytes (second passage) were grown in 6-well plates containing cover slips to 60% confluence in serum free medium (KGM, Clonetics) containing 0.07 mM CaCl2. Six hours before UVB-radiation medium was removed and replaced by fresh growth medium with or without the antioxidative substances.
Keratinocyte cultures were irradiated with a single dose of 200 mJ/cm2 UVB, using FS-20/T-12 bulbs (emission range: 280-340 nm; 305 nm max.). Immediately prior to irradiation, the medium was replaced with 1 ml sterile PBS (pH 7.4, 37° C.), and after irradiation, PBS was replaced with fresh growth medium. UVB exposure was quantitated using a Goldilux Ultraviolet radiometer. Cells were maintained at 37° C. (5% CO2) for 1 hour until fixation with paraformaldehyde (PFA).
Cells were fixed with 4% PFA in PBS for 30 min at RT, washed with PBS and permeabilized by incubation with EtOH/PBS (90/10; v %/v %) for 30 min at ˜10° C. After fixation and permeabilization cells were washed twice with PBS containing 1% of bovine serum albumin (BSA). They were then incubated for 30 min with 10 μg/ml anti-thymine Dimer Ab (clone KTM53; Kamiya) at RT. After the incubation period cells were washed twice with PBS-BSA and incubated for 30 min with 20 μg/ml secondary FITC-conjugated anti-mouse IgG at RT. After the incubation with the secondary antibody, cells were washed twice with PBS-BSA and fixed again with 4% PFA for 15 min at RT. Slides were analyzed by confocal microscopy.
This experiment is thought to reflect the in-vivo occurring DNA damage following UVB exposure and the protection of such nuclear damage by antioxidants.

[6] = Global relative antioxidant activity: total oxidative stress protective capacity score (sum of five tests); details: sum of five equally weighted tests, maximum 100
From the text: Each oxidant was scored in each test, the results were then totaled for each antioxidant for each of the tests on an equal weighted basis. The total score of a particular antioxidant is reflective of the overall oxidative stress protective capacity of the antioxidant.
The five tests, which were equally weighted at 20 points each, allowed for the maximum highest possible score of 100 points. Using this scale, the higher score indicates higher oxidative stress protective capacity of the antioxidant. Equal weight was given to an antioxidant's performance in each study because each study tested the antioxidant's ability to protect against a unique different set of oxidative stress parameters.
A total oxidative stress protective capacity score for each antioxidant was determined by adding the results of the five tests for each antioxidant. Each of the five tests was assigned equal weight. That is, each antioxidant could receive a maximum of 20 points in each test so that each test contributed equally to the total score for each antioxidant.

| Structure (SMILES) | reduction in SBCs [1] | Sun Burn Cell Assay score [1] | relative activity (efficacy) to the standard idebenone in sun burn cell assay ([1]; percentage reduction divided by that of idebenone) | Photochemilluminescence score [2] | Effective Concentration (to eliminate radical formation) [2] | Primary Oxidative Products score [3] | Secondary Oxidative Products score [4] | Positive cells after UVB radiation (anti-thymine dimer antibody positive cells) [5] | Inhibition of photoproduct generation (protective effect) [5] | UVB Irradiated Keratinocytes score [5] | Total Points (Total Score) [6] |
| --- | --- | --- | --- | --- | --- | --- | --- | --- | --- | --- | --- |
| Cc1c(C)c2c(c(C)c1O)CCC(C)(CCCC(C)CCCC(C)CCCC(C)C)O2 (racemic) [Tocopherol, dl-alpha tocopherol] | 31% | 16 points | 82% | 20 points | 10 nmol/L | 10 points | 17 points | 35% | 34% | 17 points | 80 points |
| O=C(O)CCCCC1CCSS1 (racemic) [lipoic acid, dl-alpha lipoic acid] | – | 5 points | – | 5 points | >1000 (not detectable) nmol/L | 4 points | 20 points | 53% | 0% | 7 points | 41 points |
| O=C1O[C@H]([C@@H](O)CO)C(O)=C1O [Ascorbic acid, 1-ascorbic acid] | – | 0 points | – | – | – | – | – | 34% | 36% | 17 points | – |
| COC1=C(OC)C(=O)C(CCCCCCCCCCO)=C(C)C1=O [Idebenone, 6-(10-hydroxydecyl)-2,3-dimethoxy-5-methyl-1,4-benzoquinone] | 38% | 20 points | – | 20 points | 10 nmol/L | 16 points | 19 points | 29% | 45% | 20 points | 95 points |
| c1coc(CNc2ncnc3[nH]cnc23)c1 [Kinetin, kinetin] | – | 11 points | – | – | – | – | – | 34% | 36% | 17 points | – |
| COC1=C(OC)C(=O)C(C/C=C(\C)CC/C=C(\C)CC/C=C(\C)CC/C=C(\C)CC/C=C(\C)CC/C=C(\C)CC/C=C(\C)CC/C=C(\C)CC/C=C(\C)CCC=C(C)C)=C(C)C1=O [Ubiquinone, ubiquinone] | – | 6 points | – | 15 points | 100 nmol/L | 5 points | 12 points | 51% | 4% | 17 points | 55 points |
